We go through one compound from publication PMC7595966, “Scutellarin is Highly Likely to be Responsible for Drug-Drug Interactions Mediated by Hepatic Organic Anion-Transporting Polypeptide1B3” (Pharmaceutical Research, 2020).

Molecules are shown by their SMILES.

One assay has as its target T1, hOATP1B3 (Homo sapiens, UniProt Q9NPD5).
T1 construct: gene SLCO1B3
T1 sequence (Q9NPD5 1-702): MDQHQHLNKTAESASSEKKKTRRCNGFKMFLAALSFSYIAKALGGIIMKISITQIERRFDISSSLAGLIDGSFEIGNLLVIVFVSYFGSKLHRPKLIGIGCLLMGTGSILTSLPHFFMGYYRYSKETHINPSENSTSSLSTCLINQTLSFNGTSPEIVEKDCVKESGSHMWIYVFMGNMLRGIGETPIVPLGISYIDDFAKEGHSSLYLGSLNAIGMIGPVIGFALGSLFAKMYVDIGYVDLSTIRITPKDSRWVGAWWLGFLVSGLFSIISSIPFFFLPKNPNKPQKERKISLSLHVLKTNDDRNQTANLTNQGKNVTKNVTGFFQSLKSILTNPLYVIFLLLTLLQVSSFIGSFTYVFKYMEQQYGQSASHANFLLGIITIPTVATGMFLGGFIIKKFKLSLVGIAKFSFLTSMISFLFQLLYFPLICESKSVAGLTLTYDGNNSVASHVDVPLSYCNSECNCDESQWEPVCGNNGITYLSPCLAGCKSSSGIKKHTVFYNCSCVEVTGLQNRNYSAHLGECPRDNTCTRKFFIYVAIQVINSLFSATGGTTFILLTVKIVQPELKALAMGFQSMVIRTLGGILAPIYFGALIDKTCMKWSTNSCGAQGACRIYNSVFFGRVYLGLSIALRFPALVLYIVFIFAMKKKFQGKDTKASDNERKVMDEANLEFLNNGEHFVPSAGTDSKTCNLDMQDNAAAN
Kind of assay: cell-based.

For a further assay, the target named is T2, rOATP1B2 (Rattus norvegicus, UniProt Q9QZX8).
T2 construct: gene Slco1b2
T2 sequence (Q9QZX8 1-687): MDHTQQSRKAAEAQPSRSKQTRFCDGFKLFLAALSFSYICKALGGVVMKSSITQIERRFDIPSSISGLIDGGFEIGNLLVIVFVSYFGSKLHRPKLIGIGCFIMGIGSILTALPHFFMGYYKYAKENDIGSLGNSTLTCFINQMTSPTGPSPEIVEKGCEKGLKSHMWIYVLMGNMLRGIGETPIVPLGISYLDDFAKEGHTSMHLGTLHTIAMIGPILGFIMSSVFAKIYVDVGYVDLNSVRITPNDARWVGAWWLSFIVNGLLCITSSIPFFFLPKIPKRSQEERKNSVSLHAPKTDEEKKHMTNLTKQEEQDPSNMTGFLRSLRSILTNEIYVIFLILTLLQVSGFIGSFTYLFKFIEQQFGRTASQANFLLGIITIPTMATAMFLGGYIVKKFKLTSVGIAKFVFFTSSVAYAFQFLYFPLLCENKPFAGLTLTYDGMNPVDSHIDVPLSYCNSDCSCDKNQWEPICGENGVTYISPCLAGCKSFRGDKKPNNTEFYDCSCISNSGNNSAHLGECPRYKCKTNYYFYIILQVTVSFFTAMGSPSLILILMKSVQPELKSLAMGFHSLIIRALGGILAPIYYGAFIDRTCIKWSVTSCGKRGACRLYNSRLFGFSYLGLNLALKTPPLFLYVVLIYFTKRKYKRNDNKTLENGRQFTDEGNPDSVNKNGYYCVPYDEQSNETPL
Nature of the assay: cell-based.

By IC50 is commonly meant the concentration at which inhibition is half-maximal. Lower therefore signals greater potency. For `O=C(O)[C@H]1O[C@@H](Oc2cc3oc(-c4ccc(O)cc4)cc(=O)c3c(O)c2O)[C@H](O)[C@@H](O)[C@@H]1O` [Scutellarin], the IC50 was found to be 45.5 ± 6.67 µM against hOATP1B3 and 27.6 ± 3.97 µM on rOATP1B2.
